From US11046651B2, “Piperazine substituted azapine derivatives and uses thereof” (Alairion, Inc., priority 2019, dated 2021)

Key:
5-HT2A = 5-HT2A (Homo sapiens (Human), UniProt P28223); assay: 5-HT2A binding assay ([3H]-Ketanserin, HEK293 stable cell line membranes)
Experimental: H1 and 5-HT2A Binding Assay Protocol
(§1) The testing compounds were diluted with DMSO, starting at 2 mM, with 8-points and 5-fold serial dilutions. Ketanserin and Pyrilamine were diluted with DMSO, starting at 0.2 mM, with 8-points and 5-fold serial dilution.
(§2) 1 μl of a compounds of the present disclosure and either reference compound (Table C) were transferred to assay plates. 1 μl of 0.2 mM Ketanserin or Pyrilamine was transferred to an assay plate according to the plate map for nonspecific binding (Low control: LC). 1 μl of DMSO was transferred to an assay plate according to plate map for total binding (High control: HC).
(§3) 100 μlof membrane stocks were dispensed into the plates, following the plate map. 100 of radio ligand was added. The plates were sealed and shaken at 300 rpm at room temperature for 1 hour. The Unifilter-96 GF/C filter plates were soaked with 50 of 0.3% PEI per well for at least 0.5 hour at room temperature.
(§4) When the binding assays were complete, the reaction mixture was filtered through GF/C plates using Perkin Elmer Filtermate Harvester, and then each plate was washed 4 times with cold wash buffer. The filter plates were dried for 1 hour at 50 degrees. After drying, the bottom of the filter plate wells were sealed using Perkin Elmer Unifilter-96 backing seal tape. 50 μl of Perkin Elmer Microscint 20 cocktail was added. The top of the filter plates were sealed with Perkin Elmer TopSeal-A sealing film.
(§5) ^3H trapped on filters were counted using Perkin Elmer MicroBeta2 Reader. Inhibition constants were calculated using the following equation:
(§6) [formula] The data was analyzed using Prism 5. The model used was “log(inhibitor) vs. response—Variable slope” to fit the data and calculate IC50. The IC50 was then converted to Ki using following equation: Ki=IC50/(1+L/Kd). L is the radioligand concentration in the reaction system; Kd is the affinity of radioligand to the receptor.

H1 = H1 (Homo sapiens (Human), UniProt P35367); assay: H1 binding assay ([3H]pyrilamine, HEK293 stable cell line membranes)
Experimental: Example 25. H1 and 5-HT2A Binding Assay Protocol
as §1, §2, §3, §4, §5, §6

5-HT2C = 5-HT2C (Homo sapiens (Human), UniProt P28335); assay: 5-HT2C binding assay ([3H]-Mesulergine, HEK293 membranes); conditions: Table L, class symbols
Experimental: 5-HT2C Binding Assay Protocol
The testing compounds were diluted with DMSO, starting at 2 mM, with 8-points and 5-fold serial dilutions.
1 μL of a compound of the present disclosure the reference compound (Table J) was transferred to an assay plate. […] 1 μL of DMSO was transferred to an assay plate according to the plate map for total binding (High control: HC).
as §4, with “Unifilter-96 GF/C filter plates were soaked with 50 μL of 0.3% PEI per well for about 0.5 hours at room temperature. When” for “When”, “through the” for “through”, “GF/C filter” for “GF/C”, “and” for “and then”, “50° C.” for “50 degrees.”, “μL” for “μl”
as §5
[formula] The data was analyzed using Prism 5. The model used was “log(inhibitor) vs. response—Variable slope” to fit the data and calculate IC50. The IC50 was then converted to Ki using the following equation: Ki=IC50/(1+L/Kd), wherein L is the radioligand concentration in the reaction system; Kd is the affinity of radioligand to the receptor.

5-HT2C, sequence (P28335 33-458): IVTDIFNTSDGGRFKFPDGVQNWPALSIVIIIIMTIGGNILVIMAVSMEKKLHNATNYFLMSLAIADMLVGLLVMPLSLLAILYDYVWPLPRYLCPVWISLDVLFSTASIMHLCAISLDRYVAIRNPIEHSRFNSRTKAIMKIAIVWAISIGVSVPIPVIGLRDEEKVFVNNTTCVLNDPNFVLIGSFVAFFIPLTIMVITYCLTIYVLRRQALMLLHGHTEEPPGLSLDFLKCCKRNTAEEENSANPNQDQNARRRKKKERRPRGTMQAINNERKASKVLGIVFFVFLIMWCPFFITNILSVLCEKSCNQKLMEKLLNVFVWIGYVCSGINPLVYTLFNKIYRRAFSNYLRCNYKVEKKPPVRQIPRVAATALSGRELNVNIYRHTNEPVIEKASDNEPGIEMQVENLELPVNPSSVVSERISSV
5-HT2A, sequence (P28223 whole entry, species assumed): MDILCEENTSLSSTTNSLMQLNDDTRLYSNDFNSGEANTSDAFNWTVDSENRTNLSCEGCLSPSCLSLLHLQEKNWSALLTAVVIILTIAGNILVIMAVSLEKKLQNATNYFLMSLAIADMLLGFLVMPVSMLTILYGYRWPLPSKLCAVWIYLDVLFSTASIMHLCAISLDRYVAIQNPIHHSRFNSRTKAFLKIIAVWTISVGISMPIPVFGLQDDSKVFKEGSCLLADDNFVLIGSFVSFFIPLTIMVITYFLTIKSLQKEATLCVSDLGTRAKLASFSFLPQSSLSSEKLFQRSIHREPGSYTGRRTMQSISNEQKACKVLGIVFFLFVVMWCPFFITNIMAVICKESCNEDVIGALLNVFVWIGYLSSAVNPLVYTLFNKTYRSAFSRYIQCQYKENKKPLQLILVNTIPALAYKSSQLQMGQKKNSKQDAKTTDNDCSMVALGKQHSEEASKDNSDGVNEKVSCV
H1, sequence (P35367 whole entry): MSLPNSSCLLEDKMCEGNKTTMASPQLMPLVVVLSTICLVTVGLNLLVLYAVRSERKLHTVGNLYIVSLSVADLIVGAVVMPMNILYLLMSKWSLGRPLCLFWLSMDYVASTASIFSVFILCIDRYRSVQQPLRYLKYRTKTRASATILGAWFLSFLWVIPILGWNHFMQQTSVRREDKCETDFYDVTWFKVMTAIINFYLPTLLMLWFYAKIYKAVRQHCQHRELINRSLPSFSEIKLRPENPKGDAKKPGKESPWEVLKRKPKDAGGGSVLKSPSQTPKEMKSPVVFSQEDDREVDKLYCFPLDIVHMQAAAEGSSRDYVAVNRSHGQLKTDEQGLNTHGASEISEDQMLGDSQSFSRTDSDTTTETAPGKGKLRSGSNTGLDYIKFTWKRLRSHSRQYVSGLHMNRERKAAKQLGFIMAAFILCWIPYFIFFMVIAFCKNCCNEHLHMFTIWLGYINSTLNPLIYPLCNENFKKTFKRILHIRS

## CC(CN1CCN(C2=Nc3ccccc3Cc3ccccc32)CC1)C(=O)O (stereo not shown) [A-1, 3-(4-(11H-dibenzo[b,e]azepin-6-yl)piperazin-1-yl)-2-methylpropanoic acid, reference compound]
5-HT2A; numeric values
  Ki: 1.38 µM
H1; numeric values
  Ki: 0.104 µM

## Cc1ccc2c(c1)Oc1cc(Cl)ccc1N=C2N1CCN(CC(C)(C)C(=O)O)CC1 [Compound No. 1, 3-(4-(7-chloro-3-methyldibenzo[b,f][1,4]oxazepin-11-yl)piperazin-1-yl)-2,2-dimethylpropanoic acid]
5-HT2A; Table F, class symbols
  Ki: 0.001 to 0.025 µM
5-HT2C
  Ki: > 0.5 µM
H1; Table E, class symbols
  Ki: 0.001 to 0.025 µM

## CC(C)c1ccc2c(c1)Oc1cc(Cl)ccc1N=C2N1CCN(CC(C)(C)C(=O)O)CC1 [Compound No. 2, 3-(4-(7-chloro-3-isopropyldibenzo[b,f][1,4]oxazepin-11-yl)piperazin-1-yl)-2,2-dimethylpropanoic acid]
5-HT2A; Table F, class symbols
  Ki: 0.001 to 0.025 µM
H1; Table E, class symbols
  Ki: 0.025 to 0.05 µM

## CCc1ccc2c(c1)Oc1cc(Cl)ccc1N=C2N1CCN(CC(C)(C)C(=O)O)CC1 [Compound No. 3, 3-(4-(7-chloro-3-ethyldibenzo[b,f][1,4]oxazepin-11-yl)piperazin-1-yl)-2,2-dimethylpropanoic acid]
5-HT2A; Table F, class symbols
  Ki: 0.001 to 0.025 µM
H1; Table E, class symbols
  Ki: 0.025 to 0.05 µM

## CSc1ccc2c(c1)Oc1cc(Cl)ccc1N=C2N1CCN(CC(C)(C)C(=O)O)CC1 [Compound No. 4, 3-(4-(7-chloro-3-(methylthio)dibenzo[b,f][1,4]oxazepin-11-yl)piperazin-1-yl)-2,2-dimethylpropanoic acid]
5-HT2A; Table F, class symbols
  Ki: 0.001 to 0.025 µM
H1; Table E, class symbols
  Ki: 0.001 to 0.025 µM

## CCCc1ccc2c(c1)Oc1cc(Cl)ccc1N=C2N1CCN(CC(C)(C)C(=O)O)CC1 [Compound No. 5, 3-(4-(7-chloro-3-propyldibenzo[b,f][1,4]oxazepin-11-yl)piperazin-1-yl)-2,2-dimethylpropanoic acid]
5-HT2A; Table F, class symbols
  Ki: 0.001 to 0.025 µM
H1; Table E, class symbols
  Ki: 0.025 to 0.05 µM

## Cc1ccc2c(c1)Oc1cc(C)ccc1C(N1CCN(CC3(C(=O)O)CC3)CC1)=N2 [Compound No. 9, 1-((4-(3,7-dimethyldibenzo[b,f][1,4]oxazepin-11-yl)piperazin-1-yl)methyl)cyclopropane-1-carboxylic acid]
5-HT2A; Table F, class symbols
  Ki: 0.001 to 0.025 µM
H1; Table E, class symbols
  Ki: > 0.05 µM

## O=C(O)C1(CN2CCN(C3=Nc4ccc(F)cc4Oc4cc(F)ccc43)CC2)CC1 [Compound No. 10, 1-((4-(3,7-difluorodibenzo[b,f][1,4]oxazepin-11-yl)piperazin-1-yl)methyl)cyclopropane-1-carboxylic acid]
5-HT2A; Table F, class symbols
  Ki: 0.001 to 0.025 µM
H1; Table E, class symbols
  Ki: 0.001 to 0.025 µM

## CC(C)(CN1CCN(C2=Nc3ccc(F)cc3Oc3cc(F)ccc32)CC1)C(=O)O [Compound No. 11, 3-(4-(3,7-difluorodibenzo[b,f][1,4]oxazepin-11-yl)piperazin-1-yl)-2,2-dimethylpropanoic acid]
5-HT2A; Table F, class symbols
  Ki: 0.001 to 0.025 µM
H1; Table E, class symbols
  Ki: > 0.05 µM

## O=C(O)C1(CN2CCN(C3=Nc4ccccc4Cc4ccccc43)CC2)CC1 [Compound No. 12, 1-((4-(11H-dibenzo[b,e]azepin-6-yl)piperazin-1-yl)methyl)cyclopropane-1-carboxylic acid]
5-HT2A; Table F, class symbols
  Ki: > 0.05 µM
H1; Table E, class symbols
  Ki: 0.001 to 0.025 µM

## Cc1ccc2c(c1)Oc1cc(Cl)ccc1N=C2N1CCN(CC2(C(=O)O)CC2)CC1 [Compound No. 13, 1-((4-(7-chloro-3-methyldibenzo[b,f][1,4]oxazepin-11-yl)piperazin-1-yl)methyl)cyclopropane-1-carboxylic acid]
5-HT2A; Table F, class symbols
  Ki: 0.001 to 0.025 µM
H1; Table E, class symbols
  Ki: 0.025 to 0.05 µM

## CCc1ccc2c(c1)Oc1cc(C)ccc1N=C2N1CCN(CC2(C(=O)O)CC2)CC1 [Compound No. 14, 1-((4-(3-ethyl-7-methyldibenzo[b,f][1,4]oxazepin-11-yl)piperazin-1-yl)methyl)cyclopropane-1-carboxylic acid]
5-HT2A; Table F, class symbols
  Ki: 0.001 to 0.025 µM
H1; Table E, class symbols
  Ki: > 0.05 µM

## Cc1ccc2c(c1)Oc1cc(C(F)F)ccc1N=C2N1CCN(CC(C)(C)C(=O)O)CC1 [Compound No. 16, 3-(4-(7-(difluoromethyl)-3-methyldibenzo[b,f][1,4]oxazepin-11-yl)piperazin-1-yl)-2,2-dimethylpropanoic acid]
5-HT2A; Table F, class symbols
  Ki: > 0.05 µM
H1; Table E, class symbols
  Ki: > 0.05 µM

## Cc1ccc2c(c1)Oc1cc(F)ccc1C(N1CCN(CC(C)(C)C(=O)O)CC1)=N2 [Compound No. 17, 3-(4-(3-fluoro-7-methyldibenzo[b,f][1,4]oxazepin-11-yl)piperazin-1-yl)-2,2-dimethylpropanoic acid]
5-HT2A; Table F, class symbols
  Ki: 0.001 to 0.025 µM
H1; Table E, class symbols
  Ki: 0.001 to 0.025 µM

## Cc1ccc2c(c1)Oc1cc(F)ccc1N=C2N1CCN(CC2(C(=O)O)CC2)CC1 [Compound No. 18, 1-((4-(7-fluoro-3-methyldibenzo[b,f][1,4]oxazepin-11-yl)piperazin-1-yl)methyl)cyclopropane-1-carboxylic acid]
5-HT2A; Table F, class symbols
  Ki: 0.025 to 0.05 µM
H1; Table E, class symbols
  Ki: 0.001 to 0.025 µM

## Cc1ccc2c(c1)Oc1cc(F)ccc1C(N1CCN(CC3(C(=O)O)CC3)CC1)=N2 [Compound No. 19, 1-((4-(3-fluoro-7-methyldibenzo[b,f][1,4]oxazepin-11-yl)piperazin-1-yl)methyl)cyclopropane-1-carboxylic acid]
5-HT2A; Table F, class symbols
  Ki: 0.001 to 0.025 µM
H1; Table E, class symbols
  Ki: 0.025 to 0.05 µM

## COc1ccc2c(c1)Oc1cc(Cl)ccc1N=C2N1CCN(CC(C)(C)C(=O)O)CC1 [Compound No. 20, 3-(4-(7-chloro-3-methoxydibenzo[b,f][1,4]oxazepin-11-yl)piperazin-1-yl)-2,2-dimethylpropanoic acid]
5-HT2A; Table F, class symbols
  Ki: 0.025 to 0.05 µM
H1; Table E, class symbols
  Ki: > 0.05 µM

## COc1ccc2c(c1)Oc1cc(F)ccc1N=C2N1CCN(CC(C)(C)C(=O)O)CC1 [Compound No. 21, 3-(4-(7-fluoro-3-methoxydibenzo[b,f][1,4]oxazepin-11-yl)piperazin-1-yl)-2,2-dimethylpropanoic acid]
5-HT2A; Table F, class symbols
  Ki: 0.025 to 0.05 µM
H1; Table E, class symbols
  Ki: > 0.05 µM

## CC(C)(CN1CCN(C2=Nc3ccccc3Cc3cc(F)ccc32)CC1)C(=O)O [Compound No. 37, 3-(4-(9-fluoro-11H-dibenzo[b,e]azepin-6-yl)piperazin-1-yl)-2,2-dimethylpropanoic acid]
5-HT2A; Table F, class symbols
  Ki: > 0.05 µM
5-HT2C
  Ki: > 0.5 µM
H1; Table E, class symbols
  Ki: > 0.05 µM

## Cc1ccc2c(c1)Cc1ccccc1C(N1CCN(CC(C)(C)C(=O)O)CC1)=N2 [Compound No. 38, 2,2-dimethyl-3-(4-(2-methyl-11H-dibenzo[b,e]azepin-6-yl)piperazin-1-yl)propanoic acid]
5-HT2A; Table F, class symbols
  Ki: > 0.05 µM
5-HT2C
  Ki: < 0.1 µM
H1; Table E, class symbols
  Ki: > 0.05 µM

## Cc1ccc2c(c1)Oc1ccc(F)cc1N=C2N1CCN(CC(C)(C)C(=O)O)CC1 [compound 28, 3-(4-(8-fluoro-3-methyldibenzo[b,f][1,4]oxazepin-11-yl)piperazin-1-yl)-2,2-dimethylpropanoic acid]
5-HT2C
  Ki: 0.1 to 0.5 µM

## Cc1ccc2c(c1)Oc1ccc(Cl)cc1N=C2N1CCN(CC(C)(C)C(=O)O)CC1 [compound 29, 3-(4-(8-chloro-3-methyldibenzo[b,f][1,4]oxazepin-11-yl)piperazin-1-yl)-2,2-dimethylpropanoic acid]
5-HT2C
  Ki: < 0.1 µM

## CC(C)(CN1CCN(C2=Nc3cc(F)ccc3Oc3cc(F)ccc32)CC1)C(=O)O [compound 31, 3-(4-(3,8-difluorodibenzo[b,f][1,4]oxazepin-11-yl)piperazin-1-yl)-2,2-dimethylpropanoic acid]
5-HT2C
  Ki: < 0.1 µM

## Cc1ccc2c(c1)N=C(N1CCN(CC(C)(C)C(=O)O)CC1)c1ccc(C(F)F)cc1O2 [compound 33, 3-(4-(3-(difluoromethyl)-8-methyldibenzo[b,f][1,4]oxazepin-11-yl)piperazin-1-yl)-2,2-dimethylpropanoic acid]
5-HT2C
  Ki: < 0.1 µM

## Cc1ccc2c(c1)C(N1CCN(CC(C)(C)C(=O)O)CC1)=Nc1cc(Cl)ccc1O2 [compound 34, 3-(4-(8-chloro-2-methyldibenzo[b,f][1,4]oxazepin-11-yl)piperazin-1-yl)-2,2-dimethylpropanoic acid]
5-HT2C
  Ki: < 0.1 µM

## COc1ccc2c(c1)C(N1CCN(CC(C)(C)C(=O)O)CC1)=Nc1cc(Cl)ccc1O2 [compound 35, 3-(4-(8-chloro-2-methoxydibenzo[b,f][1,4]oxazepin-11-yl)piperazin-1-yl)-2,2-dimethylpropanoic acid]
5-HT2C
  Ki: 0.1 to 0.5 µM
